Source: patent US20220257621A1, “CANCER CELL PROLIFERATION SUPPRESSION AGENT AND COMPOSITION FOR SUPPRESSING PROLIFERATION OF CANCER CELLS” (SHOWA DENKO K.K., priority 2019, published 2022)

Legend:
Format in all cases: cell-based, human
[1] = system: ARNT gene; assay: Suppression of ARNT gene expression induced by atmospheric dust (quantitative real-time PCR); settings: NHEK; sample 0.001% by mass 24 h, then atmospheric dust (NIST 1648a) 500 μg/mL 48 h; standardized to GAPDH; control without dust = 1; dust + water = 1.74
Method: The effect of the inositol derivative on suppressing the expression of an ARNT gene in normal human epidermal keratinocytes (NHEK, manufactured by KURABO INDUSTRIES LTD.) was measured under the following conditions. The NHEK cells were seeded in a HuMedia KG2 medium manufactured by KURABO INDUSTRIES LTD. at the seeding density of 10000 cells/cm^2, and cultured for 24 hours under the conditions of 37° C. and 5% CO2. Next, an aqueous solution of the inositol derivative or an aqueous solution of myo-inositol was added to the culture medium so that the final concentration of the inositol derivative or myo-inositol was 0.001% by mass, or water (pure water) was added to the culture medium, and culturing was further performed for 24 hours. […] Using this cDNA as a template, the expression level of the ARNT gene was quantitatively determined by quantitative real-time PCR using a primer specific to the ARNT gene (Perfect Real Time Primer, manufactured by Takara Bio Inc.). As an internal standard gene, the expression level of GAPDH was quantitatively determined (primer used: Perfect Real Time Primer, manufactured by Takara Bio Inc.), and the expression level of the ARNT gene was standardized based on the expression level of GAPDH. […]

[2] = system: CYP1A1 gene; assay: Suppression of CYP1A1 gene expression induced by atmospheric dust (quantitative real-time PCR); settings: NHEK; sample 0.001% by mass 24 h, then atmospheric dust (NIST 1648a) 500 μg/mL 48 h; standardized to GAPDH; control without dust = 1; dust + water = 4.11
Method: (§1) The effect of the inositol derivative on suppressing the expression of a CYP1A1 gene and a CYP1B1 gene in normal human epidermal keratinocytes (NHEK, manufactured by KURABO INDUSTRIES LTD.) was measured under the following conditions.
(§2) The NHEK cells were seeded in a HuMedia KG2 medium manufactured by KURABO INDUSTRIES LTD. at the seeding density of 10000 cells/cm^2, and cultured for 24 hours under the conditions of 37° C. and 5% CO2. […] Using this cDNA as a template, the expression levels of the CYP1A1 gene and the CYP1B1 gene were quantitatively determined by quantitative real-time PCR using primers (QuantiTect Primer Assays, manufactured by QIAGEN) specific to the CYP1A1 gene and the CYP1B1 gene. As an internal standard gene, the expression level of a GAPDH gene, which is a housekeeping gene in which expression fluctuation due to the addition of atmospheric dust is not shown, was quantitatively determined (primer used: Perfect Real Time Primer, manufactured by Takara Bio Inc.), and the expression levels of the CYP1A1 gene and the CYP1B1 gene were standardized based on the expression level of GAPDH. […]

[3] = system: CYP1B1 gene; assay: Suppression of CYP1B1 gene expression induced by atmospheric dust (quantitative real-time PCR); settings: NHEK; sample 0.001% by mass 24 h, then atmospheric dust (NIST 1648a) 500 μg/mL 48 h; standardized to GAPDH; control without dust = 1; dust + water = 4.30
Method: as §1, §2

O[C@H]1[C@H](O)[C@@H](O)[C@H](O)[C@@H](O)[C@H]1O [myo-Inositol, myo-inositol]
Relative gene expression level ARNT [1]: 1.85 | Relative gene expression level CYP1A1 [2]: 3.10 | Relative gene expression level CYP1B1 [3]: 1.08
